Experimental data taken from PubChem BioAssay AID248 (DTP/NCI, 2004).
Toxic doses and inconclusive results are not listed. Cut-off read from the data, not from the text of the source: active = T/C of 150% or more; inactive = T/C below 125%.

Test system: L1210 leukemia ip in BDF1 mice, survival T/C
Assay: NCI In Vivo Anticancer Drug Screen. Data for tumor model L1210 Leukemia (intraperitoneal) in B6D2F1 (BDF1) mice
Details: endpoint: mean survival time, higher = longer survival
How it was run: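 Each compound was tested against a transplantable tumor grown in mice. The endpoint was survival, with treated animals benchmarked against vehicle controls as a simple ratio.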

[1] = dose: 100.0 mg/kg/injection, schedule: Q01DX009 (ip), vehicle: Klucel (hydroxypropylcellulose) (HPC)
[2] = dose: 100.0 mg/kg/injection, schedule: Q04DX003 (ip), vehicle: Klucel (hydroxypropylcellulose) (HPC)
[3] = dose: 200.0 mg/kg/injection, schedule: Q01DX009 (ip), vehicle: Klucel (hydroxypropylcellulose) (HPC)
[4] = dose: 200.0 mg/kg/injection, schedule: Q04DX003 (ip), vehicle: Klucel (hydroxypropylcellulose) (HPC)
[5] = dose: 400.0 mg/kg/injection, schedule: Q01DX009 (ip), vehicle: Klucel (hydroxypropylcellulose) (HPC)
[6] = dose: 400.0 mg/kg/injection, schedule: Q04DX003 (ip), vehicle: Klucel (hydroxypropylcellulose) (HPC)
[7] = dose: 25.0 mg/kg/injection, schedule: Q01DX001 (ip), vehicle: saline
[8] = dose: 50.0 mg/kg/injection, schedule: Q01DX001 (ip), vehicle: saline
[9] = dose: 100.0 mg/kg/injection, schedule: Q01DX001 (ip), vehicle: saline
[10] = dose: 200.0 mg/kg/injection, schedule: Q01DX001 (ip), vehicle: saline
[11] = dose: 400.0 mg/kg/injection, schedule: Q01DX001 (ip), vehicle: saline
[12] = dose: 100.0 mg/kg/injection, schedule: Q01DX009 (ip), vehicle: saline with Tween-80
[13] = dose: 100.0 mg/kg/injection, schedule: Q04DX003 (ip), vehicle: saline with Tween-80
[14] = dose: 200.0 mg/kg/injection, schedule: Q01DX009 (ip), vehicle: saline with Tween-80
[15] = dose: 200.0 mg/kg/injection, schedule: Q04DX003 (ip), vehicle: saline with Tween-80
[16] = dose: 400.0 mg/kg/injection, schedule: Q04DX003 (ip), vehicle: saline with Tween-80
[17] = dose: 6.25 mg/kg/injection, schedule: Q01DX009 (ip), vehicle: saline
[18] = dose: 12.5 mg/kg/injection, schedule: Q01DX009 (ip), vehicle: saline
[19] = dose: 100.0 mg/kg/injection, schedule: Q01DX001 (ip), vehicle: other
[20] = dose: 200.0 mg/kg/injection, schedule: Q01DX001 (ip), vehicle: other
[21] = dose: 50.0 mg/kg/injection, schedule: Q01DX009 (ip), vehicle: saline with Tween-80
[22] = dose: 50.0 mg/kg/injection, schedule: Q01DX009 (ip), vehicle: Klucel (hydroxypropylcellulose) (HPC)
[23] = dose: 12.5 mg/kg/injection, schedule: Q04DX003 (ip), vehicle: saline
[24] = dose: 25.0 mg/kg/injection, schedule: Q04DX003 (ip), vehicle: saline
[25] = dose: 50.0 mg/kg/injection, schedule: Q04DX003 (ip), vehicle: saline
[26] = dose: 100.0 mg/kg/injection, schedule: Q04DX003 (ip), vehicle: saline
[27] = dose: 200.0 mg/kg/injection, schedule: Q04DX003 (ip), vehicle: saline

Measured: T/C

CCCCCCCCCCCCCCCCCC(=O)NCCS
inactive: dose: 25.0 mg/kg/injection, schedule: Q04DX002 (ip), vehicle: saline with Tween-80 101 % of control | dose: 50.0 mg/kg/injection, schedule: Q04DX002 (ip), vehicle: saline with Tween-80 89 % of control | dose: 100.0 mg/kg/injection, schedule: Q04DX002 (ip), vehicle: saline with Tween-80 104 % of control

CC(=O)OC1CCCCCCC1
inactive: [1] 97 % of control | [2] 95 % of control | [3] 100 % of control | [4] 92 % of control | [5] 94 % of control | [6] 92 % of control

OCC1OC(n2ccc3c(Cl)ncnc32)C(O)C1O (stereo not given)
inactive: [7] 110 % of control | [8] 104 % of control | [9] 110 % of control | [10] 110 % of control

Cc1ccc(NC(=S)Nc2ccccc2)cc1
inactive: [2] 97 % of control | [4] 107 % of control

CSc1ccc(C(CNC(C)=O)C(C#N)C#N)cc1 (stereo not given)
inactive: [9] 101 % of control | [10] 103 % of control | [11] 89 % of control

COc1ccccc1NC(=O)NC1CCCCC1
inactive: [1] 100 % of control | [3] 100 % of control | [5] 102 % of control

CCOC(=O)CN(CC(=O)OCC)CC(O)C(Cl)(Cl)Cl (stereo not given)
inactive: [12] 106 % of control | [13] 96 % of control | [14] 93 % of control | [15] 101 % of control | dose: 400.0 mg/kg/injection, schedule: Q01DX009 (ip), vehicle: saline with Tween-80 104 % of control | [16] 98 % of control

O=C(N/N=C/c1c[nH]c2ccccc12)C1CCCO1 (stereo not given)
inactive: [1] 98 % of control | [3] 98 % of control | [5] 94 % of control

C/C=C\C=N\NC(N)=S
inactive: dose: 12.5 mg/kg/injection, schedule: Q04DX003 (ip), vehicle: saline with Tween-80 95 % of control | dose: 25.0 mg/kg/injection, schedule: Q04DX003 (ip), vehicle: saline with Tween-80 103 % of control | dose: 50.0 mg/kg/injection, schedule: Q04DX003 (ip), vehicle: saline with Tween-80 95 % of control

CC1CN1c1nc(N2CC2C)nc(N2CC2C)n1 (stereo not given)
inactive: dose: 1.56 mg/kg/injection, schedule: Q01DX009 (ip), vehicle: saline 97 % of control | dose: 3.13 mg/kg/injection, schedule: Q01DX009 (ip), vehicle: saline 95 % of control | dose: 5.0 mg/kg/injection, schedule: Q01DX001 (ip), vehicle: saline 100 % of control | [17] 92 % of control | dose: 10.0 mg/kg/injection, schedule: Q01DX001 (ip), vehicle: saline 109 % of control | [18] 87 % of control | dose: 20.0 mg/kg/injection, schedule: Q01DX001 (ip), vehicle: saline 109 % of control

CSc1[nH]c2ncnc(N)c2c1C#N
inactive: [19] 88 % of control | [20] 101 % of control

COc1ccccc1NC1=C(NC(=O)Cc2ccccc2)C(=O)c2ccccc2C1=O
inactive: [13] 98 % of control | [15] 96 % of control | [16] 94 % of control

CC1=CP(=O)(Oc2ccc([N+](=O)[O-])cc2)CC1 (stereo not given)
inactive: dose: 75.0 mg/kg/injection, schedule: Q01DX001 (ip), vehicle: saline 102 % of control

CSc1nc(C(=O)O)c(C)c(=O)[nH]1
inactive: dose: 100.0 mg/kg/injection, schedule: Q01DX Z (ip), vehicle: saline 109 % of control | dose: 200.0 mg/kg/injection, schedule: Q01DX Z (ip), vehicle: saline 100 % of control

CN(C)c1ccc(C(=O)C(O)c2ccccc2)cc1 (stereo not given)
inactive: [1] 92 % of control | [2] 98 % of control | [3] 88 % of control | [4] 100 % of control | [5] 88 % of control | [6] 96 % of control

Clc1nc2nc(Cl)n(Cl)c2nc1Cl
inactive: [21] 96 % of control | [12] 95 % of control | [13] 98 % of control | [14] 91 % of control | [15] 89 % of control | [16] 96 % of control

ClC(Cl)(Cl)SN1CCOCC1
inactive: dose: 50.0 mg/kg/injection, schedule: Q01DX009 (ip), vehicle: saline 106 % of control | dose: 100.0 mg/kg/injection, schedule: Q01DX009 (ip), vehicle: saline 95 % of control | dose: 200.0 mg/kg/injection, schedule: Q01DX009 (ip), vehicle: saline 104 % of control

O=C(O)CSc1nc2ccccc2s1
inactive: [12] 107 % of control

c1ccc(C2=NOC(c3ccccc3)C2)cc1 (stereo not given)
inactive: dose: 75.0 mg/kg/injection, schedule: Q01DX009 (ip), vehicle: Klucel (hydroxypropylcellulose) (HPC) 105 % of control | dose: 75.0 mg/kg/injection, schedule: Q04DX003 (ip), vehicle: Klucel (hydroxypropylcellulose) (HPC) 95 % of control | dose: 150.0 mg/kg/injection, schedule: Q01DX009 (ip), vehicle: Klucel (hydroxypropylcellulose) (HPC) 105 % of control | dose: 150.0 mg/kg/injection, schedule: Q04DX003 (ip), vehicle: Klucel (hydroxypropylcellulose) (HPC) 100 % of control | dose: 300.0 mg/kg/injection, schedule: Q01DX009 (ip), vehicle: Klucel (hydroxypropylcellulose) (HPC) 100 % of control | dose: 300.0 mg/kg/injection, schedule: Q04DX003 (ip), vehicle: Klucel (hydroxypropylcellulose) (HPC) 95 % of control

CC1=C(c2ccccc2)C(O)(c2ccccc2)C(C)C1=O (stereo not given)
inactive: [22] 101 % of control | [1] 93 % of control | [3] 95 % of control

Nc1ccccc1S.[Ag]
inactive: [8] 95 % of control | [9] 86 % of control | [10] 91 % of control | [11] 91 % of control

CSc1ccc(N=Cc2ccc3c(c2)OCO3)cc1
inactive: [22] 103 % of control | [1] 97 % of control | [2] 102 % of control | [3] 99 % of control | [4] 107 % of control | [6] 94 % of control

NC(CSS(=O)(=O)O)=NCC12CC3CC(CC(C3)C1)C2
inactive: dose: 12.5 mg/kg/injection, schedule: Q04DX002 (ip), vehicle: Klucel (hydroxypropylcellulose) (HPC) 104 % of control | dose: 25.0 mg/kg/injection, schedule: Q04DX002 (ip), vehicle: Klucel (hydroxypropylcellulose) (HPC) 95 % of control

Cc1ccccc1-c1c2ccccc2c2ccccc2[n+]1[O-]
inactive: [22] 101 % of control | [1] 101 % of control | [3] 108 % of control

COc1ccc(C)cc1NC(=O)Nc1cc(C(F)(F)F)ccc1Cl
inactive: [1] 88 % of control | [3] 95 % of control | [5] 90 % of control

CCCCCC1OC1C/C=C\CCCCCCCC(=O)OCC(O)COC(=O)CCCCCCC/C=C\CC1OC1CCCCC (stereo not given)
inactive: [9] 97 % of control | [10] 97 % of control | [11] 95 % of control

O=C1C2C(C(=O)N1c1ccc(O)cc1)C1c3ccccc3C2C2CCCCN21 (stereo not given)
inactive: [23] 102 % of control | [24] 103 % of control | [25] 102 % of control | [26] 100 % of control

CCCCOCCOc1ccc(C(=O)O)cc1
inactive: [19] 106 % of control | [26] 87 % of control | [20] 94 % of control | [27] 94 % of control | dose: 400.0 mg/kg/injection, schedule: Q01DX001 (ip), vehicle: other 103 % of control | dose: 400.0 mg/kg/injection, schedule: Q04DX003 (ip), vehicle: saline 87 % of control

Oc1ccc(C=NCC2CCCC[N-]2)c(O)c1.Oc1ccc(C=NCC2CCCC[N-]2)c(O)c1.[Ni+2] (stereo not given)
inactive: [13] 95 % of control | [15] 87 % of control

CCC1CC(C#N)C(=O)NC1=O (stereo not given)
inactive: [17] 93 % of control | dose: 12.5 mg/kg/injection, schedule: Q01DX001 (ip), vehicle: saline 108 % of control | [18] 91 % of control | [23] 100 % of control | [7] 100 % of control | dose: 25.0 mg/kg/injection, schedule: Q01DX009 (ip), vehicle: saline 93 % of control | [24] 92 % of control | [8] 110 % of control

C=CCNc1ccc(OC)cc1
inactive: [21] 88 % of control | [12] 96 % of control | [14] 98 % of control

CCN(CC)CC(O)Cn1cnc2c(N)ncnc21 (stereo not given)
inactive: [25] 104 % of control | [26] 111 % of control | [27] 93 % of control
